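The compound was tested at five concentrations on cells cultured in 96-well plates, with a 48-hour exposure period. GI50 is the concentration that inhibits growth by half. At the TGI there is no net growth.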
Experiments:
Assay in all cases: NCI-60 cell line screen, 48 h
[1] = system: HCC-2998 colon
[2] = system: A549 NSCLC
[3] = system: NCI-H460 lung
[4] = system: NCI-H226 lung
[5] = system: HOP-92 NSCLC
[6] = system: SW-620 colon
[7] = system: T-47D breast
[8] = system: KM12 colon
[9] = system: OVCAR-4 ovarian
[10] = system: EKVX NSCLC
[11] = system: TK-10 renal
[12] = system: SF-268 CNS
[13] = system: PC-3 prostate
[14] = system: HL-60(TB) leukemia
[15] = system: HCT-116 colon
[16] = system: NCI-H522 lung
[17] = system: HCT-15 colon
[18] = system: SK-MEL-5 melanoma
[19] = system: NCI/ADR-RES ovarian
[20] = system: U251 CNS
[21] = system: UACC-257 melanoma
[22] = system: SK-MEL-2 melanoma
[23] = system: UACC-62 melanoma
[24] = system: NCI-H23 lung
[25] = system: SNB-19 CNS
[26] = system: M14 melanoma
[27] = system: MDA-MB-435
[28] = system: RPMI-8226 leukemia

`COc1ccc([C@H]2[C@H](O)C(=O)N2c2cc(OC)c(OC)c(OC)c2)cc1` was tested. Which GI50 [1] did it give?
The GI50 was less than 15.8 nM.

And the TGI [1]?
The TGI was greater than 100000 nM.

And the GI50 [2]?
The GI50 was less than 13.2 nM.

And the TGI [2]?
Its TGI is greater than 100000 nM.

And the GI50 [3]?
Its GI50 is less than 13.3 nM.

What about the TGI [3] of the same compound?
Its TGI is greater than 34300 nM.

And the GI50 [4]?
Its GI50 is less than 10 nM.

And the TGI [4]?
The TGI was greater than 100000 nM.

What about the TGI [5] of the same compound?
The TGI was greater than 100000 nM.

And the GI50 [6]?
The GI50 was less than 10.9 nM.

What about the TGI [6] of the same compound?
The TGI was greater than 100000 nM.

And the GI50 [7]?
The GI50 was greater than 100000 nM.

What about the TGI [7] of the same compound?
Its TGI is greater than 100000 nM.

And the GI50 [8]?
The GI50 was less than 10 nM.

And the TGI [8]?
Its TGI is greater than 100000 nM.

And the GI50 [9]?
The GI50 was 1750 nM.

And the TGI [9]?
Its TGI is greater than 100000 nM.

And the TGI [10]?
The TGI was greater than 100000 nM.

And the GI50 [11]?
Its GI50 is greater than 100000 nM.

What about the TGI [11] of the same compound?
The TGI was greater than 100000 nM.

What about the GI50 [12] of the same compound?
Its GI50 is less than 20.7 nM.

What about the TGI [12] of the same compound?
The TGI was greater than 100000 nM.

What about the GI50 [13] of the same compound?
Its GI50 is less than 10 nM.

And the TGI [13]?
The TGI was greater than 100000 nM.

What about the GI50 [14] of the same compound?
The GI50 was less than 10 nM.

And the TGI [14]?
The TGI was less than 17.2 nM.

And the GI50 [15]?
The GI50 was less than 10 nM.

And the TGI [15]?
The TGI was greater than 100000 nM.

And the GI50 [16]?
Its GI50 is less than 10 nM.

And the TGI [16]?
Its TGI is less than 10 nM.

What about the GI50 [17] of the same compound?
The GI50 was less than 10.3 nM.

What about the TGI [17] of the same compound?
Its TGI is greater than 100000 nM.

And the GI50 [18]?
Its GI50 is less than 10 nM.

What about the TGI [18] of the same compound?
The TGI was 38.7 nM.

And the GI50 [19]?
Its GI50 is less than 13.9 nM.

What about the TGI [19] of the same compound?
The TGI was 3840 nM.

What about the GI50 [20] of the same compound?
Its GI50 is less than 10 nM.

What about the TGI [20] of the same compound?
The TGI was greater than 100000 nM.

And the GI50 [21]?
The GI50 was 1870 nM.

And the TGI [21]?
Its TGI is greater than 100000 nM.

And the GI50 [22]?
The GI50 was 30.9 nM.

What about the TGI [22] of the same compound?
Its TGI is greater than 100000 nM.

What about the GI50 [23] of the same compound?
The GI50 was less than 10 nM.

What about the TGI [23] of the same compound?
The TGI was greater than 100000 nM.

What about the GI50 [24] of the same compound?
Its GI50 is 11 nM.

What about the TGI [24] of the same compound?
Its TGI is greater than 100000 nM.

What about the GI50 [25] of the same compound?
The GI50 was less than 26.7 nM.

And the TGI [25]?
Its TGI is greater than 100000 nM.

What about the GI50 [26] of the same compound?
The GI50 was less than 12.7 nM.

What about the TGI [26] of the same compound?
The TGI was greater than 100000 nM.

And the GI50 [27]?
Its GI50 is less than 10 nM.

And the TGI [27]?
The TGI was less than 10 nM.

And the GI50 [28]?
The GI50 was less than 10 nM.

What about the TGI [28] of the same compound?
The TGI was greater than 100000 nM.
